The source of these data is paper PMC3945760, “Antioxidant action and cytotoxicity on HeLa and NIH-3T3 cells of new quercetin derivatives” (Interdisciplinary Toxicology, 2013).

Read-outs that look alike come from different tables or passages of the source.

Experiment [1] can be described thus: Scavenging of DPPH radical. The following applies: 10 min, room temperature, methanol, read-out: IC50 ± SD DPPH. The method, then: We used the simple spectrophotometric method according to Yen and Chen ([1995]) to determine the ability to scavenge free radicals. Binding of DPPH? radical by compounds causes its decolorization. The compounds tested were diluted in methanol to the final concentration 200 µM to 12.5 µM. Trolox served as standard antioxidant control. Reactions of samples with DPPH? solution were performed in 96-well plates and lasted for 10 min at room temperature in the dark. After that, the absorbance changes were measured spectrophotometrically at 520 nm (Multiskan FC, Thermo Scientific, DE). Each value is the mean of 5 wells with standard deviation. Inhibitory concentrations (IC50) were expressed as the concentration of the derivative tested to react with one half of the DPPH? and were calculated by SigmaPlot.
Background: The DPPH test is a chemical assay of radical scavenging.

Experiment [2] in a line: Ferric reducing antioxidant power (FRAP). The following applies: 10 min, 37 °C, read-out: IC50 ± SD FRAP. On the procedure:
The antioxidant reducing power of the derivatives tested was performed using the FRAP method according to Benzie and Strain ([1996]). Ferric to ferrous ion reduction at low pH causes the formation of a colored ferrous-tripyridyltriazine complex. Samples diluted in methanol (200 µM to 12.5 µM) and FRAP reagent reacted for 10 min at 37 °C in 96-well microplates. At the end, absorbance changes were measured spectrophotometrically at 593 nm (Multiskan FC, Thermo Scientific, DE). Each value is the mean of 5 wells with standard deviation. Inhibitory concentrations (IC50) were expressed as the concentration of the derivative tested reducing one half of ferric complexes and were calculated by SigmaPlot.

Experiment [3] deals with human cervical cancer cells HeLa. Nature of the experiment: MTT assay on HeLa cells. It counts as cell-based. The following applies: for IC50: MTT, 72 h drug exposure, read-out: IC50 ± SD HeLa cells. On the procedure: (§1) The human tumor cell line HeLa and murine fibroblast NIH-3T3 cells were obtained from the ATCC (Rockville, MD, USA). The cells grown at 37 °C in humidified 5%-CO2 and 95%-air atmosphere were in Dulbecco's modified eagle medium supplemented with 10% (vol/vol) inactivated bovine serum, penicillin G and streptomycin (100 mg/l). Before a uniform monolayer of cells was formed, cells were freed from the surface of the culture flask by a 0.25% solution of trypsin and were subcultivated two to three times a week. The cells were plated on the cultivation flask (surface 25 cm^2) at a density of 4×10^4 HeLa cells and 6×10^4 NIH-3T3 cells per ml medium and incubated for 24 h prior to the experiments.
(§2) The cytotoxic effect of the compounds prepared on cells was detected in vitro using the mitochondrial cytotoxic test according to Jantová et al. ([2010]) with modifications. Cell viability was evaluated using thiazolyl blue tetrazolium bromide (MTT), which indicates the metabolic activity of cells. The experiment was performed in 96-well microplates. The cells were seeded at a density of 3.5×10^3 HeLa or NIH-3T3 cells per well. Samples were dissolved in DMSO (stock solution 10 mM) and subsequently diluted in medium to the final concentration of 5 µM to 100 µM (concentration of DMSO 0.5%) and after 24 h they were added to the cells. Microplates were cultivated for 72 h in thermostat at 37 °C and 5% CO2 atmosphere. After incubation thiazolyl blue tetrazolium bromide (3.33 mg/ml phosphate buffered saline, pH=7.4) was pipetted to each well and left to incubate for further two hours. Then the medium with MTT solution was removed. Formazan crystals in viable cells were dissolved in the lysis solution (4 mM HCl and 0.1% Nonidet P40 in ethanol). Microplates were shaken 15 min at 1500 rpm. Absorbance was measured at 540 nm and reference wavelength at 740 nm (Multiskan FC, Thermo Scientific, DE). Each value is the mean of 6 wells with standard deviation. Inhibition activity was expressed as percentages of control with DMSO. For each compound IC50 values were calculated by SigmaPlot.
On the technique in general: Formazan colour is commonly taken as a measure of viable cells.

For experiment [4], the system named is non-cancer murine fibroblast cells NIH-3T3. Briefly: MTT assay on NIH-3T3 cells. The conditions noted are these: for IC50: MTT, 72 h drug exposure, read-out: IC50 ± SD NIH-3T3 cells. It counts as cell-based. The method, then:
as §1, §2

The test system of the next experiment is NIH-3T3 cells. Briefly: Light microscopy of NIH-3T3 cells. In kind it is cell-based, murine. The conditions noted are these: NIH-3T3, 25 µM and 50 µM, 72 h. The method, then:
(§3) The cytotoxic action of the effective chloronaphtoquinone quercetin 5 was further observed also by light microscopy after 72 h of HeLa and NIH-3T3 cells cultivation. […] On the other hand, a significant decrease in cell number was found in cells treated with both concentrations studied (25 µM and 50 µM).
(§4) We monitored prepared quercetin derivatives for their cytotoxic action on human cervical cancer cells HeLa in the concentration range from 5 µM to 100 µM. For comparison non-cancer murine fibroblast cells NIH-3T3 were also evaluated. The MTT test and light microscopy were used for cytotoxicity measurements.

Another experiment concerns HeLa cells. Briefly: Light microscopy of HeLa cells. In kind it is cell-based, human. The conditions noted are these: 25 µM and 50 µM, 72 h. The method, then:
as §3, §4

Broadly, the IC50 is the concentration needed to halve the response being measured. In the case of `O=c1c(O)c(-c2ccc(O)c(O)c2)oc2cc(O)cc(O)c12` [Q, quercetin], the IC50 in experiment [1] turned out to be 16.2 ± 1.1 µM; in experiment [2], 12.5 ± 0.9 µM; in experiment [3], 35.5 ± 1.1 µM; in experiment [4] (Mus musculus, NIH3T3, 72 h) it was 20.9 ± 0.9 µM.
In the same order, the values of `Cc1c(C)c2c(c(C)c1O)CCC(C)(C(=O)O)O2` (stereo not shown) [T, trolox, reference compound] are 34.7 ± 1 µM, 39.5 ± 2.1 µM, 34.7 ± 1 µM and 39.5 ± 2.1 µM.
`O=C1C(Cl)=C(Oc2cc(-c3oc4cc(O)cc(O)c4c(=O)c3O)ccc2O)C(=O)c2ccccc21` [compound 5, chloronaphtoquinone quercetin]: the concentration for half-maximal inhibition (IC50) was 28.4 ± 3 µM in experiment [1]; 64.5 ± 0.6 µM in experiment [2]; 13.2 ± 1.6 µM in experiment [3]; 16.5 ± 0.1 µM in experiment [4] (Mus musculus, NIH3T3, 72 h). For the same compound, the morphologic changes result in the experiment with NIH-3T3 cells was “cell rounding and cell separation from the cultivation surface”; in the experiment on HeLa cells, “cell rounding and cell separation from the cultivation surface”. Moreover, the inhibition at 25 µM worked out at 94.5% in experiment [3] (25 µM, 72 h, read-out: Inhibition of cell proliferation) and 71.9% in experiment [4] (Mus musculus, NIH3T3, NIH-3T3, 25 µM, 72 h, read-out: Inhibition of cell proliferation). The inhibition at 50 µM in experiment [3] (50 µM, 72 h, read-out: Inhibition of cell proliferation) turned out to be 97.9%; in experiment [4] (Mus musculus, NIH3T3, NIH-3T3, 50 µM, 72 h, read-out: Inhibition of cell proliferation), 85.2%. The inhibition at 100 µM amounted to 97.7% in experiment [3] (100 µM, 72 h, read-out: Inhibition of cell proliferation) and 93.7% in experiment [4] (Mus musculus, NIH3T3, NIH-3T3, 100 µM, 72 h, read-out: Inhibition of cell proliferation).
As to `CC(C)(CCl)C(=O)Oc1cc(OC(=O)C(C)(C)CCl)c2c(=O)c(O)c(-c3ccc(O)c(OC(=O)C(C)(C)CCl)c3)oc2c1` [compound 3], the IC50 was over 200 µM in experiment [1]; over 200 µM in experiment [2]; 65 ± 4.5 µM in experiment [3]; 20.3 ± 1.9 µM in experiment [4] (Mus musculus, NIH3T3, 72 h).
`CC1CN(CC(O)COc2cc(O)cc3oc(-c4ccc(O)c(O)c4)c(O)c(=O)c23)CC(C)O1` (stereo not shown) [compound 4]: the IC50 was over 200 µM in experiment [1]; over 200 µM in experiment [2]; over 100 µM in experiment [3]; over 100 µM in experiment [4] (Mus musculus, NIH3T3, 72 h).
On to `CC(=O)Oc1ccc(/C=C/C(=O)Oc2ccc(-c3oc4cc(O)c(O)cc4c(=O)c3OC(=O)/C=C/c3ccc(OC(C)=O)c(OC(C)=O)c3)cc2OC(=O)/C=C/c2ccc(OC(C)=O)c(OC(C)=O)c2)cc1OC(C)=O` [compound 11], for which the IC50 was 35.4 ± 2.7 µM in experiment [1]; over 200 µM in experiment [2]; 16.5 ± 1.5 µM in experiment [3]; 10.6 ± 0.1 µM in experiment [4] (Mus musculus, NIH3T3, 72 h).
In the same order, the values of `COc1ccc(/C=C/C(=O)Oc2ccc(-c3oc4cc(O)cc(O)c4c(=O)c3O)cc2OC(=O)/C=C/c2ccc(OC)c(OCC=C(C)C)c2)cc1OCC=C(C)C` [compound 14] are 82.8 ± 3.3 µM, 183 ± 13.5 µM, over 50 µM and over 50 µM.
Taken in the same sequence, the figures for `O=C1c2c(O)cc(O)cc2OC2(c3ccc(O)c(O)c3)Oc3ccc(-c4oc5cc(O)cc(O)c5c(=O)c4O)cc3OC12O` (stereo not shown) [compound 1, diquercetin] were 58.8 ± 6.2 µM, 103 ± 6.2 µM, 64 ± 7.5 µM and 32.9 ± 1.1 µM.
With `CC(C)=CCOc1ccc(/C=C/C(=O)Oc2cc(O)c3c(=O)c(O)c(-c4ccc(OC(=O)/C=C/c5ccc(OCC=C(C)C)c(OCC=C(C)C)c5)c(OC(=O)/C=C/c5ccc(OCC=C(C)C)c(OCC=C(C)C)c5)c4)oc3c2)cc1OCC=C(C)C` [compound 7], the IC50 in experiment [1] was over 200 µM; in experiment [2], over 200 µM; in experiment [3], over 50 µM; in experiment [4], over 50 µM; in experiment [4] (Mus musculus, NIH3T3, 72 h), over 100 µM.
Consider `CC(C)(CCl)C(=O)Oc1cc(-c2oc3cc(O)cc(O)c3c(=O)c2O)ccc1O` [compound 2], for which the IC50 in experiment [1] is 27 ± 0.2 µM; in experiment [2], 12.5 ± 0.3 µM; in experiment [3] it was 43.4 ± 2.8 µM; in experiment [4] (Mus musculus, NIH3T3, 72 h), 26.8 ± 0.5 µM.
On to `CC(C)=CCOc1ccc(/C=C/C(=O)Oc2cc(O)c3c(=O)c(O)c(-c4ccc(OC(=O)/C=C/c5ccc(OCC=C(C)C)c(OCC=C(C)C)c5)c(O)c4)oc3c2)cc1OCC=C(C)C` [compound 8], for which the IC50 was 161 ± 13.2 µM in experiment [1]; over 200 µM in experiment [2]; over 50 µM in experiment [3]; over 50 µM in experiment [4]; over 100 µM in experiment [4] (Mus musculus, NIH3T3, 72 h).
For the compound `CC(=O)Oc1cc(OC(C)=O)c2c(=O)c(OC(C)=O)c(-c3ccc(OC(C)=O)c(OC(C)=O)c3)oc2c1` [compound 6, pentaacetyl quercetin], the 50% inhibitory concentration (IC50) was over 200 µM in experiment [1]; over 200 µM in experiment [2]; 29.6 ± 1.9 µM in experiment [3]; 15.5 ± 0.7 µM in experiment [4] (Mus musculus, NIH3T3, 72 h).
Regarding `COc1ccc(/C=C/C(=O)Oc2cc(-c3oc4cc(O)cc(O)c4c(=O)c3O)ccc2O)cc1OC(C)=O` [compound 15], the concentration for half-maximal inhibition (IC50) in experiment [1] is over 200 µM; in experiment [2] it was over 200 µM; in experiment [3], over 50 µM; in experiment [4] (Mus musculus, NIH3T3, 72 h), over 50 µM.
Regarding `CC(=O)Oc1ccccc1C(=O)Oc1ccc(-c2oc3cc(O)cc(OC(=O)c4ccccc4OC(C)=O)c3c(=O)c2OC(=O)c2ccccc2OC(C)=O)cc1OC(=O)c1ccccc1OC(C)=O` [compound 12, tetra(acetylsalicyloyl) quercetin], the IC50 is over 200 µM in experiment [1]; over 200 µM in experiment [2]; over 50 µM in experiment [3]; over 50 µM in experiment [4] (Mus musculus, NIH3T3, 72 h).
Consider `CC(=O)OC1CC(OC(C)=O)(C(=O)Oc2cc(O)c3c(=O)c(O)c(-c4ccc(OC(=O)C5(OC(C)=O)CC(OC(C)=O)C(OC(C)=O)C(OC(C)=O)C5)c(O)c4)oc3c2)CC(OC(C)=O)C1OC(C)=O` (stereo not shown) [compound 9, di(tetraacetylquinoyl) quercetin], for which the IC50 stood at 63.7 ± 2.6 µM in experiment [1]; 112 ± 7.3 µM in experiment [2]; 19.5 ± 0.8 µM in experiment [3]; 16.1 ± 0.4 µM in experiment [4] (Mus musculus, NIH3T3, 72 h).
